Test results taken from patent publication US20230102520A1, “INHIBITORS OF LOW MOLECULAR WEIGHT PROTEIN TYROSINE PHOSPHATASE (LMPTP) AND USES THEREOF” (Sanford Burnham Prebys Medical Discovery Institute, priority 2019, published 2023).

Target: T1, human LMPTP-A (Homo sapiens, UniProt P24666)
T1 sequence (P24666 1-158): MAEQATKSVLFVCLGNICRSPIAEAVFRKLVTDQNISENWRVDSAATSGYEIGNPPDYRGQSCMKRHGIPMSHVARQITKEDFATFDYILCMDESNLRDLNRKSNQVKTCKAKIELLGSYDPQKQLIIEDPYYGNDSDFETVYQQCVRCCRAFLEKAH
Assay: Enzyme Assay of Inhibition of LMPTP-A
Assay type: biochemical
Settings: phosphatase assay, OMFP or pNPP substrate, 50 mM Bis-Tris pH 6.0, 37° C.
Description: Example B-1: Enzyme Assay of Inhibition of LMPTP-A
Phosphatase assays were performed in buffer containing 50 mM Bis-Tris, pH 6.0, 1 mM DTT and 0.01% Triton X-100 at 37° C. For assays conducted with 3-O-methylfluorescein phosphate (OMFP) as substrate, fluorescence was monitored continuously at λex=485 and λem=525 nm. For assays conducted with para-nitrophenylphosphate (pNPP) as substrate, the reaction was stopped by addition of 2× reaction volume of 1 M NaOH, and absorbance was measured at 405 nm. IC50 values of compounds disclosed herein were determined from plots of inhibitor concentration versus percentage of enzyme activity. For inhibitor selectivity assays, each PTP was incubated with either 0.4 mM OMFP or 5 mM pNPP in the presence of 40 μM compound or DMSO. […] For the inhibitor reversibility assay, 50 nM human LMPTP-A was pre-incubated with 10 μM of compound disclosed herein or DMSO for 5 min. The enzyme was diluted 100× in phosphatase assay buffer containing 0.4 mM OMFP and fluorescence was measured at the indicated time points.

IC50	Compound
< 1 µM	3-[(3,5-dichloro(4-pyridyl))methyl]-8-(2-5,6,7,8-tetrahydronaphthyl)-3-hydropurine-6-ylamine
< 1 µM	3-[(3,5-diiodo(4-pyridyl))methyl]-8-(2-methylphenyl)-3-hydropurine-6-ylamine
< 1 µM	3-[(4-iodo-2-methoxy(3-pyridyl))methyl]-8-(2-methylphenyl)-3-hydropurine-6-ylamine
1 to 20 µM	Cc1ccccc1-c1nc2c(N)nc(C)n(Cc3c(Cl)ccnc3Cl)c-2n1 [3-[(2,4-dichloro(3-pyridyl))methyl]-2-methyl-8-(2-methylphenyl)-3-hydropurine-6-ylamine]
< 1 µM	Cc1cc(-c2nc3c(N)ncn(Cc4c(Cl)ccnc4Cl)c-3n2)n(C)n1 [3-[(2,4-dichloro(3-pyridyl))methyl]-8-(1,3-dimethylpyrazol-5-yl)-3-hydropurine-6-ylamine]
< 1 µM	Nc1ncn(Cc2c(Cl)ccnc2Cl)c2nc(-c3cc(F)ccc3F)nc1-2 [3-[(2,4-dichloro(3-pyridyl))methyl]-8-(2,5-difluorophenyl)-3-hydropurine-6-ylamine]
< 1 µM	Nc1ncn(Cc2c(Cl)ccnc2Cl)c2nc(-c3ccc4c(c3)CCCC4)nc1-2 [3-[(2,4-dichloro(3-pyridyl))methyl]-8-(2-5,6,7,8-tetrahydronaphthyl)-3-hydropurine-6-ylamine]
< 1 µM	Cc1ccccc1-c1nc2c(N)ncn(Cc3c(Cl)ccnc3Cl)c-2n1 [3-[(2,4-dichloro(3-pyridyl))methyl]-8-(2-methylphenyl)-3-hydropurine-6-ylamine]
< 1 µM	Nc1ncn(Cc2c(Cl)ccnc2Cl)c2nc(Cc3ccc(F)cc3)nc1-2 [3-[(2,4-dichloro(3-pyridyl))methyl]-8-[(4-fluorophenyl)methyl]-3-hydropurine-6-ylamine]
< 1 µM	Nc1ncn(Cc2c(Cl)ccnc2Cl)c2nc(-c3ccccc3)nc1-2 [3-[(2,4-dichloro(3-pyridyl))methyl]-8-phenyl-3-hydropurine-6-ylamine]
< 1 µM	COc1ccnc(OC)c1Cn1cnc(N)c2nc(-c3ccccc3C)nc1-2 [3-[(2,4-dimethoxy(3-pyridyl))methyl]-8-(2-methylphenyl)-3-hydropurine-6-ylamine]
< 1 µM	Cc1nc(C)c(Cn2cnc(N)c3nc(-c4ccccc4C)nc2-3)s1 [3-[(2,4-dimethyl(1,3-thiazol-5-yl))methyl]-8-(2-methylphenyl)-3-hydropurine-6-ylamine]
< 1 µM	Cc1ccccc1-c1nc2c(N)ncn(Cc3c(C)ccnc3C)c-2n1 [3-[(2,4-dimethyl(3-pyridyl))methyl]-8-(2-methylphenyl)-3-hydropurine-6-ylamine]
< 1 µM	Cc1ccnc(C)c1Cn1cnc(N)c2nc(-c3ccccc3)nc1-2 [3-[(2,4-dimethyl(3-pyridyl))methyl]-8-phenyl-3-hydropurine-6-ylamine]
< 1 µM	Cc1ccccc1-c1nc2c(N)ncn(Cc3c(Cl)nc(N)nc3Cl)c-2n1 [3-[(2-amino-4,6-dichloropyrimidin-5-yl)methyl]-8-(2-methylphenyl)-3-hydropurine-6-ylamine]
< 1 µM	Cc1ccccc1-c1nc2c(N)ncn(Cc3cccnc3C)c-2n1 [3-[(2-methyl(3-pyridyl))methyl]-8-(2-methylphenyl)-3-hydropurine-6-ylamine]
1 to 20 µM	Cc1ccccc1-c1nc2c(N)nc(C)n(Cc3c(Br)cncc3Br)c-2n1 [3-[(3,5-dibromo(4-pyridyl))methyl]-2-methyl-8-(2-methylphenyl)-3-hydropurine-6-ylamine]
< 1 µM	Nc1ncn(Cc2c(Br)cncc2Br)c2nc(-c3ccc4c(c3)CCCC4)nc1-2 [3-[(3,5-dibromo(4-pyridyl))methyl]-8-(2-5,6,7,8-tetrahydronaphthyl)-3-hydropurine-6-ylamine]
< 1 µM	Cc1ccccc1-c1nc2c(N)ncn(Cc3c(Br)cncc3Br)c-2n1 [3-[(3,5-dibromo(4-pyridyl))methyl]-8-(2-methylphenyl)-3-hydropurine-6-ylamine]
